Assay: xn = mol fraction of the nth substance listed

CN1CCCC1=O + O
Settings	viscosity [mPa·s]
293.15 K, 101 kPa, x1 = 0.6997	2.865
298.15 K, 101 kPa, x1 = 0.02	1.2
298.15 K, 101 kPa, x1 = 0.0505	1.809
298.15 K, 101 kPa, x1 = 0.0985	2.79
298.15 K, 101 kPa, x1 = 0.0997	2.778
298.15 K, 101 kPa, x1 = 0.1202	3.198
298.15 K, 101 kPa, x1 = 0.1503	3.914
298.15 K, 101 kPa, x1 = 0.1702	4.125
298.15 K, 101 kPa, x1 = 0.1881	4.44
298.15 K, 101 kPa, x1 = 0.1999	4.578
298.15 K, 101 kPa, x1 = 0.2205	4.804
298.15 K, 101 kPa, x1 = 0.2496	5.035
298.15 K, 101 kPa, x1 = 0.2697	5.12
298.15 K, 101 kPa, x1 = 0.2937	5.154
298.15 K, 101 kPa, x1 = 0.3053	5.1
298.15 K, 101 kPa, x1 = 0.3496	5.006
298.15 K, 101 kPa, x1 = 0.3959	4.59
298.15 K, 101 kPa, x1 = 0.3999	4.679
298.15 K, 101 kPa, x1 = 0.45	4.31
298.15 K, 101 kPa, x1 = 0.4954	3.77
298.15 K, 101 kPa, x1 = 0.4999	3.909
298.15 K, 101 kPa, x1 = 0.5941	3.07
298.15 K, 101 kPa, x1 = 0.6002	3.214
298.15 K, 101 kPa, x1 = 0.6917	2.55
298.15 K, 101 kPa, x1 = 0.7	2.676
298.15 K, 101 kPa, x1 = 0.786	2.18
298.15 K, 101 kPa, x1 = 0.7997	2.299
298.15 K, 101 kPa, x1 = 0.8859	1.9
298.15 K, 101 kPa, x1 = 0.8962	2.023
298.15 K, 101 kPa, x1 = 0.9498	1.908
298.15 K, 101.15 kPa, x1 = 0.0501	1.74
298.15 K, 101.15 kPa, x1 = 0.0701	2.137
298.15 K, 101.15 kPa, x1 = 0.1001	2.762
298.15 K, 101.15 kPa, x1 = 0.2004	4.555
298.15 K, 101.15 kPa, x1 = 0.3004	5.062
298.15 K, 101.15 kPa, x1 = 0.4012	4.505
298.15 K, 101.15 kPa, x1 = 0.503	3.729
298.15 K, 101.15 kPa, x1 = 0.5937	3.075
298.15 K, 101.15 kPa, x1 = 0.7023	2.503
298.15 K, 101.15 kPa, x1 = 0.9006	1.836
298.16 K, 101 kPa, x2 = 0.0836	1.84
298.16 K, 101 kPa, x2 = 0.1794	2.14
298.16 K, 101 kPa, x2 = 0.3006	2.72
298.16 K, 101 kPa, x2 = 0.4221	3.52
298.16 K, 101 kPa, x2 = 0.5466	4.45
298.16 K, 101 kPa, x2 = 0.6595	5.05
298.16 K, 101 kPa, x2 = 0.6861	5.04
298.16 K, 101 kPa, x2 = 0.7608	4.66
298.16 K, 101 kPa, x2 = 0.7976	4.23
298.16 K, 101 kPa, x2 = 0.8599	3.2
303.15 K, 101 kPa, x1 = 0.3001	4.365
303.15 K, 101 kPa, x1 = 0.899	1.705
308.15 K, 101 kPa, x1 = 0.02	0.9403
308.15 K, 101 kPa, x1 = 0.0505	1.375
308.15 K, 101 kPa, x1 = 0.1202	2.303
308.15 K, 101 kPa, x1 = 0.1702	2.895
308.15 K, 101 kPa, x1 = 0.1999	3.179
308.15 K, 101 kPa, x1 = 0.2205	3.323
308.15 K, 101 kPa, x1 = 0.2496	3.478
308.15 K, 101 kPa, x1 = 0.2697	3.539
308.15 K, 101 kPa, x1 = 0.2937	3.574
308.15 K, 101 kPa, x1 = 0.3202	3.591
308.15 K, 101 kPa, x1 = 0.3496	3.518
308.15 K, 101 kPa, x1 = 0.3999	3.351
308.15 K, 101 kPa, x1 = 0.45	3.147
308.15 K, 101 kPa, x1 = 0.4999	2.912
308.15 K, 101 kPa, x1 = 0.6002	2.487
308.15 K, 101 kPa, x1 = 0.7	2.138
308.15 K, 101 kPa, x1 = 0.7997	1.883
308.15 K, 101 kPa, x1 = 0.8962	1.691
313.15 K, 101.15 kPa, x1 = 0.0501	1.178
313.15 K, 101.15 kPa, x1 = 0.0701	1.402
313.15 K, 101.15 kPa, x1 = 0.1001	1.744
313.15 K, 101.15 kPa, x1 = 0.2004	2.684
313.15 K, 101.15 kPa, x1 = 0.3004	2.975
313.15 K, 101.15 kPa, x1 = 0.4012	2.777
313.15 K, 101.15 kPa, x1 = 0.503	2.44
313.15 K, 101.15 kPa, x1 = 0.5937	2.125
313.15 K, 101.15 kPa, x1 = 0.7023	1.818
313.15 K, 101.15 kPa, x1 = 0.8066	1.585
313.15 K, 101.15 kPa, x1 = 0.9006	1.43
318.15 K, 101 kPa, x1 = 0.0997	1.548
318.15 K, 101 kPa, x1 = 0.1202	1.73
318.15 K, 101 kPa, x1 = 0.1503	2.039
318.15 K, 101 kPa, x1 = 0.1702	2.13
318.15 K, 101 kPa, x1 = 0.1999	2.32
318.15 K, 101 kPa, x1 = 0.2205	2.417
318.15 K, 101 kPa, x1 = 0.2496	2.527
318.15 K, 101 kPa, x1 = 0.2697	2.572
318.15 K, 101 kPa, x1 = 0.2937	2.603
318.15 K, 101 kPa, x1 = 0.3202	2.623
318.15 K, 101 kPa, x1 = 0.3496	2.589
318.15 K, 101 kPa, x1 = 0.3999	2.503
318.15 K, 101 kPa, x1 = 0.45	2.387
318.15 K, 101 kPa, x1 = 0.4999	2.245
318.15 K, 101 kPa, x1 = 0.6002	1.977
318.15 K, 101 kPa, x1 = 0.7997	1.571
318.15 K, 101 kPa, x1 = 0.9498	1.375
323.15 K, 101 kPa, x1 = 0.6997	1.485
323.15 K, 101.15 kPa, x1 = 0.0501	0.942
323.15 K, 101.15 kPa, x1 = 0.0701	1.106
323.15 K, 101.15 kPa, x1 = 0.2004	1.995
323.15 K, 101.15 kPa, x1 = 0.4012	2.116
323.15 K, 101.15 kPa, x1 = 0.503	1.935
323.15 K, 101.15 kPa, x1 = 0.7023	1.509
323.15 K, 101.15 kPa, x1 = 0.8066	1.343
